# Data published in a melting point compilation (Tetko et al.; mined from patent text by program, amines drawn as free bases though some values may be those of a salt).
row,SMILES,melting point [°C]
1,Cc1ccc(C2=C(c3ccc(S(C)(=O)=O)cc3)OC(C)(C)C2=O)cc1,167 to 168
2,CCCCCc1cc(-c2ccc(F)cc2C(C)O)c(C(C)C)nc1C(C)C (stereo not drawn),84 to 86
3,COc1cccc(-c2c(=O)[nH]c3cc(Cl)c(Cl)cc3[n+]2[O-])c1,238 to 240
4,Cc1cc(CCC2(C)NC(=O)NC2=O)cc(C(C)(C)C)c1O (stereo not drawn),210 to 211
5,CCOC(=O)c1ccc(N(C(=O)OC(C)(C)C)N(C)C(C)=O)cc1,82
6,O=C(O)c1cccc(NC(=O)C(CS)CC2CN(Cc3ccccc3)CCO2)c1 (stereo not drawn),110 to 112
7,O=[N+]([O-])c1ccc(C=CC=CC=CC=Cc2ccc([N+](=O)[O-])cc2)cc1,238 to 240
8,COC(=O)CC(c1ccccc1)N1C(=O)c2ccccc2C1=O (stereo not drawn),75 to 76
9,O=c1cc(O)c(=O)c2ccc(O)cc2[nH]1,> 350
10,COc1cc(C(C)=O)c(O)cc1OCCCCl,99 to 101
11,CCCCCCCCOc1cc(N)c(OCOC)c(OC)c1,56 to 57
12,C[C@H](Oc1ccc(-c2cccc(OCC(N)=O)c2)cc1)[C@H](O)CCc1cccnc1,120 to 122
13,CC1CCCN(c2ccc([N+](=O)[O-])cc2C(=O)c2ccc(Cl)cc2)C1 (stereo not drawn),112
14,CCOC(=O)COc1ccc2c(c1)CC(CNC(=O)OC(C)(C)C)C2 (stereo not drawn),56 to 63
15,O=C(CCOc1ccc(Cl)cc1)NCCCn1ccnc1,114 to 116
16,O=C(O)Cn1cc(Cc2nc3c(F)c(F)cc(F)c3s2)c2ccc(-c3ccccc3)cc21,156 to 159
17,CC(C)(C)[Si](C)(C)Oc1ccc2c(N3C(=O)c4ccccc4C3=O)n[nH]c2c1,207 to 209
18,CC(O)c1cn(C(c2ccccc2)(c2ccccc2)c2ccccc2)cn1 (stereo not drawn),156 to 157
19,O=C(O)c1ccc(NCCCCCCCc2ccccc2)cc1,123 to 126
20,COc1cc(N)c(Cl)cc1C(=O)N[C@@H]1CCN(CCCOc2ccc(F)cc2)C[C@H]1F (relative stereo),125
21,CCS(=O)(=O)CCOc1cc(CCCOc2nn(Cc3ccccc3)cc2CC(=O)O)n(Cc2ccc(Cl)cc2Cl)n1,100 to 101
22,O=c1ccc2cnc(Nc3ccccc3)nc2n1-c1ccccc1,300 to 302
23,COC(=O)COC(=O)COc1ccc(-c2coc3cc(OCC(=O)OCC(=O)OC)ccc3c2=O)cc1,111 to 114

row,SMILES,melting point [°C]
1,O=c1nc(-c2cccc(CCOP(=O)(O)O)n2)sc2ccccc12,235 to 237
2,CCOc1ccc2[nH]c3c([N+](=O)[O-])cc([N+](=O)[O-])c(Cl)c3c(=O)c2c1,238 to 241
3,c1cnc2c(c1)nnn2-c1ccncc1,196 to 198
4,COc1cc(Nc2nccc(-c3ccc(NCCCCO)nc3)n2)cc(OC)c1OC,170 to 171
5,NC(=O)c1ccc(N)c(C(N)=O)c1,177 to 198
6,Cc1ccnc2c1C(=O)c1nccc(Cl)c1C2=O,> 300
7,CC(=O)NC[C@H]1CN(c2cc(F)c(N3CCC(Cc4noc(-c5ccccc5)n4)CC3)c(F)c2)C(=O)O1,152 to 154
8,O=C(Nc1ccc(-c2ccccc2)s1)C1CCCCC1,174
9,COC=C(C(=O)OC)c1c(OCc2cc(Cl)ccc2Cl)c(C)nn1C,94 to 96
10,COc1ccc2c(c1)C(N=Cc1cc(OC)c(OC)cc1[N+](=O)[O-])CCO2 (stereo not drawn),143 to 145
11,COc1cc(C(C)=O)ccc1OCCCN1CCN(c2n[nH]c3cc(Cl)ccc23)CC1,132 to 134
12,COc1ccc(CNc2nnc(N(C)CCCO)c3ccc(Cl)cc23)cc1Cl,115 to 117
13,O=Cc1cc([N+](=O)[O-])ccc1-c1ccccc1,79.5
14,CC(C)Oc1cc(-n2c(Cl)nc(C(F)(F)C(F)(F)F)cc2=O)c(F)cc1Cl,55 to 58
15,O=C(O)[C@H](CC(=NO)c1ccc2oc3ccccc3c2c1)NC(=O)C(F)(F)F,128 to 130
16,C=CC(=O)Oc1ccc(Cl)c2c1Sc1ccccc1C2,164 to 165
17,CCCCCCCCCCCCCCOC(=O)CCC(=O)O,48 to 49
18,CC(=O)CC(=O)NC1CC1,65 to 66
19,O=[N+]([O-])c1cccc(-c2ccc3[nH]c(=S)n(Cc4ccccc4)c3c2)c1,244 to 245
20,O=Cc1cc2ccccc2nc1N1CCN(CC2CCCCC2)CC1,54 to 55
21,CCCc1c(C#N)c2ccc(C(=O)OC)cc2n1Cc1ccccc1Cl,132 to 133
22,COc1cc(C)c(C(=O)c2c(Cl)cccc2Cl)c(OC)c1OC,92
23,CC(=O)N(c1ccc(O)cc1)c1ccc2cc(O)ccc2c1,255

row,SMILES,melting point [°C]
1,O=C1NC(=O)c2c1c(-c1ccccc1Cl)cc1c2c2cc(O)ccc2n1CC(O)CO (stereo not drawn),305 to 309
2,CCOC(=O)C(=O)c1c[nH]c2ccc(Br)cc12,182 to 183
3,CCCCCCCCCCCCCCCCCCOc1cc(OCCCOc2ccc(S(C)=O)cc2)cc(C(=O)OC)c1 (stereo not drawn),86 to 88
4,CCCC1=C(C(=O)OCC)C(c2cccc3nsnc23)c2c[nH]nc2N1 (stereo not drawn),180
5,CCCc1c(C(=O)C(C)C)c2ccc(NC=O)cc2n1Cc1ccccc1Cl,113 to 115
6,CCCCCCCCC1(COc2ccc(N)cc2)CCc2c(C)c(OC(C)=O)c(C)c(C)c2O1 (stereo not drawn),112 to 114
7,CCCn1cc2c(C3C(=O)Nc4ccc(Br)cc43)nc(NCC3CCCN3)nc2n1 (stereo not drawn),286 to 293
8,Cc1cc(OC(F)(F)C(F)Cl)ccc1NC(=O)CCCC=C(F)F (stereo not drawn),59 to 60
9,O=C(NC1CC1)c1cccc(-c2ccc3c(c2)N(c2ccc(Cl)cc2Cl)CC3)c1,215 to 218
10,Cc1nn(C)c2ccc(C(=O)O)c(C(=O)O)c12,228 to 232
11,Cc1nc(C)c(CBr)nc1C,41.2 to 44
12,O=C1NCC(c2ccsc2)SCC1N1C(=O)c2ccccc2C1=O (stereo not drawn),243 to 245
13,CCCNC(=O)C1=C(C(=O)Nc2cc(OC3CCCC3)c(Cl)cc2F)CCCC1,138 to 140
14,CCCCc1nc2sc(Cl)cc2c(=O)n1CCC,67 to 69
15,CCc1nnc2c(N(C(C)=O)C(C)=O)nc3ccccc3n12,157 to 159
16,CC1CCC2C3CC(=O)C4=CC(=O)CCC4(C)C3CCC12C (stereo not drawn),94 to 95
17,Cc1nccn1CCC(=O)NC(C)c1ccc(Cl)cc1 (stereo not drawn),135 to 137
18,CC(C)C(C(=O)O)c1ccc(Cl)cc1 (stereo not drawn),88 to 89
19,COC(=O)C=C1CCC(c2ccc(O)cc2)CC1 (stereo not drawn),151 to 152
20,CCCCCCCCCc1ccc(C(=O)CCCCC(=O)O)cc1,29 to 31
21,O=Cc1ccc(-c2ccccc2-c2nnn[nH]2)cc1,189 to 190

# Results, then the molecule that gave them:
row,melting point [°C],SMILES
1,125 to 138,C[C@@H](CNC(=O)COC(=O)c1cc(S(N)(=O)=O)c(Cl)cc1NCc1ccco1)O[N+](=O)[O-]
2,96 to 97,Nc1ccc(C(=O)NNCCC(=O)OCc2ccccc2)cc1
3,156 to 158,CCNC(=O)c1ccc(Nc2nc(OCC3CCCCC3)c3nc[nH]c3n2)cc1
4,27 to 29,CCCCCCOCCCCCCCCCCCSCCCO
5,149,CSc1nc(C)cc(O)n1
6,128 to 130,Nc1ncc(Sc2ncccc2O)s1
7,83,COCc1cc(-c2ncn(-c3cccc(Oc4ccccc4)c3)c2C)on1
8,215 to 217,CC(=NO)c1ccnc(N)c1
9,179 to 180,Cc1cc(-c2nc3cccnn3c2-c2ccnc(N)c2)ccc1F
10,130 to 133,O=S(=O)(Nc1nc(Cl)cnc1OCc1ccco1)c1ccc(Cl)s1
11,141 to 143,CCNC(=O)N1CCN(C2CCCc3ccc(OC)cc32)CC1 (stereo not drawn)
12,137 to 138,CCC(C)N1C(=O)c2ccccc2Oc2ncccc21 (stereo not drawn)
13,100,CCOC(=O)c1c(CC(C)C)nc2c(C(F)(F)F)cccc2c1O
14,156 to 157,COC(=O)/C=C1\CCCCC1n1nc(-c2c(-c3ccccc3)nn3ccccc23)ccc1=O (stereo not drawn)
15,95 to 97,CSc1nccn1N=Cc1ccccc1
16,210 to 211,Cn1cc(Cc2cc3cccc(-c4cccc(C(=O)NCCO)c4)c3s2)cc(Cl)c1=O
17,210 to 212,O=[N+]([O-])c1cccc(Oc2cccc(-c3nnc(Nc4ccc(Cl)c(Cl)c4)s3)c2)c1
18,55 to 56,CCCCCCCCCCCCCCCCCCNC(=O)OC[C@@H]1OCCC[C@H]1O (relative stereo)

row,melting point [°C],SMILES
1,147 to 150,Cc1ccc(-c2nnc(N3CCC(O)C3)nc2-c2ccc(C)cc2)cc1 (stereo not drawn)
2,215 to 217,Cc1nc(N2CCN(CCc3c[nH]c4ccccc34)C2=O)sc1C(=O)NCc1ccccc1
3,169 to 171,COc1ccc(C)cc1NC(=O)Nc1ccc(N2CCN(C(=O)OC(C)(C)C)CC2)cc1C
4,120 to 122,CCCc1ccc2nc(N)sc2c1
5,148,O=S(c1cn(-c2c(Cl)cc(C(F)(F)F)cc2Cl)c(Cl)n1)C(F)(F)F (stereo not drawn)
6,155 to 157,COCCONC(=O)c1nc(-c2ccc(Cl)c(OC)c2F)cc(N)c1Cl
7,197 to 199,CON=Cc1ccc2c(c1)ncn2-c1cccc(-n2ccnc2)c1
8,184,OC1COC(n2c(Cl)nc3cc(Cl)c(Cl)cc32)C(O)C1O (stereo not drawn)
9,94 to 95,O=Cc1cnn(-c2c(Cl)cc(C(F)(F)F)cc2Cl)n1
10,34.5 to 36,Cc1c(N)noc1C(F)(F)F
11,212 to 213,FC(F)(F)c1cccc(Oc2cccc(-c3nnc(Nc4ccc(Cl)c(Cl)c4)s3)c2)c1
12,164 to 165,C=CCc1c(O)ccc2c(=O)cc(C(=O)OCC)oc12
13,185 to 187,COc1ccc(N(CCC(=O)NCC(=O)O)C(=O)c2ccc(Cl)cc2)cc1
14,173 to 174,O=Cc1ccc(-c2ccc(-c3ccc(C=O)o3)cc2)cc1
15,126 to 129,O=C(NCC(O)c1cccc(OCc2ccc3ccccc3n2)c1)c1ccccn1 (stereo not drawn)
16,210,O=C(Nc1ccc2ccc(Cl)nc2n1)C1=CCC=CC1
17,146 to 150,CCc1c(Oc2cc(C)cc(C)c2)n(COCc2ccccc2)c(=O)[nH]c1=O
18,212 to 213,Cc1cc(I)ccc1NC1=CC2=NCN(C)C2=CC1(F)C(=O)NOCC(O)CO (stereo not drawn)
